Assays:
PC3 cells = test: MTT cell viability; type: cell-based, human; settings: PC3 (non-functional p53), 0–100 μM, 48 h
in vitro = settings: human, human serum
HdmX level = test: Western blot of LNCaP cell extracts; type: cell-based, human; settings: 48 h, cyclotides 50 μM
[1] = mice, MCo-PMI 40 mg/kg i.v. daily
DU145 cells = test: MTT cell viability; type: cell-based, human; settings: DU145 (non-functional p53), 0–100 μM, 48 h
p53 level = type: cell-based, human; settings: LNCaP; 50 μM MCo-PMI, 8–48 h; western blot
LNCaP cells = test: Propidium iodide flow cytometric cell cycle assay; type: cell-based, human; settings: LNCaP cells treated 24 h; propidium iodide flow cytometry
caspase-3/7 = test: Caspase-3/7 assay in LNCaP cells; type: cell-based, human; settings: LNCaP cells treated 30 h
HBL100 cells = test: MTT cell viability; settings: HBL100 normal breast epithelial cells, 48 h, triplicate

Row | percent bound (serum proteins (human)) [%] | Molecule | Effect on cell viability (PC3 cells) | half-life (in vitro) [h] | Effect on intracellular HdmX level (HdmX level) | Body weight throughout treatment [1] | Organs and tissues at necropsy [1] | Association constant rate to human serum proteins [M⁻¹ s⁻¹] | Dissociation constant rate from human serum proteins [s⁻¹] | Effect on cell viability (DU145 cells) | Time of peak p53 level post-treatment (p53 level) [h] | Effect on cell cycle progression (LNCaP cells) | Caspase-3/7 activation (caspase-3/7) | EC50, cytotoxicity to non-cancerous cells (HBL100 cells) [µM]
1 |  | CC[C@H](C)[C@@H]1NC(=O)[C@@H]2CSSC[C@@H]3NC(=O)[C@H](C(C)C)NC(=O)CNC(=O)CNC(=O)[C@H](C)NC(=O)[C@H](CO)NC(=O)[C@H](CC(C)C)NC(=O)[C@H](CC(C)C)NC(=O)[C@H](CC(N)=O)NC(=O)[C@H](Cc4c[nH]c5ccccc45)NC(=O)[C@H](Cc4ccc(O)cc4)NC(=O)[C@H](CCC(=O)O)NC(=O)[C@H](C)NC(=O)[C@H](Cc4ccccc4)NC(=O)[C@H](CO)NC(=O)[C@H]([C@@H](C)O)NC(=O)[C@@H]4CCCN4C(=O)[C@H](C)NC(=O)[C@H](CCCCN)NC(=O)[C@H](CO)NC(=O)[C@H](C)NC(=O)CNC(=O)[C@H](CO)NC(=O)CNC(=O)[C@H](CO)NC(=O)CNC(=O)[C@@H]4CSSC[C@H](NC(=O)[C@H](CC(=O)O)NC(=O)[C@H](CO)NC(=O)[C@H](CC(=O)O)NC(=O)[C@H](CCCNC(=N)N)NC(=O)[C@H](CCCNC(=N)N)NC(=O)[C@H](CSSC[C@H](NC1=O)C(=O)N[C@@H](CCCNC(=N)N)C(=O)NCC(=O)N[C@@H](CC(N)=O)C(=O)NCC(=O)N[C@@H](Cc1ccc(O)cc1)C(=O)N4)NC(=O)[C@H](CCCNC(=N)N)NC(=O)[C@H](CCC(N)=O)NC(=O)[C@H](CC(C)C)NC(=O)[C@H]([C@@H](C)CC)NC(=O)[C@H](CCCCN)NC(=O)[C@@H]1CCCN1C3=O)C(=O)N1CCC[C@H]1C(=O)NCC(=O)N[C@@H](C)C(=O)N2 [MCo-PMI] | unaffected | 30 ± 4 | downregulated | maintained healthy weight | no gross abnormalities | 2400 | 0.022 | unaffected | 36 to 48 | depression of the S-phase fraction | dose-dependent caspase-3 activation | 
2 |  | COc1ccc(C2=N[C@@H](c3ccc(Cl)cc3)[C@@H](c3ccc(Cl)cc3)N2C(=O)N2CCNC(=O)C2)c(OC(C)C)c1 [Nutlin-3, reference compound] | unaffected |  |  |  |  |  |  | unaffected |  | depression of the S-phase fraction |  | 33 ± 5
3 | 80 | cyclo(SGSDGGVCPKILQRCRRDSDCPGACICRGNGYCG) (natural protein, disulfide (positions not given here)) [cyclotide Momordica cochinchinensis trypsin inhibitor-I] |  |  |  |  |  |  |  |  |  |  |  | 
